According to patent US10221197B2, “Phosphatidylinositol 3-kinase inhibitors” (Gilead Sciences, Inc., priority 2014, dated 2019):

Legend:
Format in all cases: biochemical
PI3Kβ = PI3Kβ (Homo sapiens (Human), UniProt P42338); experiment: TR-FRET enzymatic assay of PI3K isoforms (PI3Kβ); conditions: TR-FRET, 2×Km ATP, 2 μM PIP2, incubated for 30 minutes at 25° C.; read-out: β IC50
Description: (§1) The compounds of formula (I) were characterized for their enzymatic activity against the PI3K isoforms. Certain compounds of the present application, including certain compounds of formula (II) and (III) were also characterized for their enzymatic activity against PI3K isoforms. The activities were measured using a time-resolved fluorescence resonance energy transfer (TR-FRET) assay.

PI3Kδ = PI3Kδ (Homo sapiens (Human), UniProt O00329); experiment: TR-FRET enzymatic assay of PI3K isoforms (PI3Kδ); conditions: 2×Km ATP, 2 μM PIP2, incubated for 30 minutes at 25° C., read-out: δ IC50
PI3Kδ, sequence (O00329 whole entry, canonical isoform): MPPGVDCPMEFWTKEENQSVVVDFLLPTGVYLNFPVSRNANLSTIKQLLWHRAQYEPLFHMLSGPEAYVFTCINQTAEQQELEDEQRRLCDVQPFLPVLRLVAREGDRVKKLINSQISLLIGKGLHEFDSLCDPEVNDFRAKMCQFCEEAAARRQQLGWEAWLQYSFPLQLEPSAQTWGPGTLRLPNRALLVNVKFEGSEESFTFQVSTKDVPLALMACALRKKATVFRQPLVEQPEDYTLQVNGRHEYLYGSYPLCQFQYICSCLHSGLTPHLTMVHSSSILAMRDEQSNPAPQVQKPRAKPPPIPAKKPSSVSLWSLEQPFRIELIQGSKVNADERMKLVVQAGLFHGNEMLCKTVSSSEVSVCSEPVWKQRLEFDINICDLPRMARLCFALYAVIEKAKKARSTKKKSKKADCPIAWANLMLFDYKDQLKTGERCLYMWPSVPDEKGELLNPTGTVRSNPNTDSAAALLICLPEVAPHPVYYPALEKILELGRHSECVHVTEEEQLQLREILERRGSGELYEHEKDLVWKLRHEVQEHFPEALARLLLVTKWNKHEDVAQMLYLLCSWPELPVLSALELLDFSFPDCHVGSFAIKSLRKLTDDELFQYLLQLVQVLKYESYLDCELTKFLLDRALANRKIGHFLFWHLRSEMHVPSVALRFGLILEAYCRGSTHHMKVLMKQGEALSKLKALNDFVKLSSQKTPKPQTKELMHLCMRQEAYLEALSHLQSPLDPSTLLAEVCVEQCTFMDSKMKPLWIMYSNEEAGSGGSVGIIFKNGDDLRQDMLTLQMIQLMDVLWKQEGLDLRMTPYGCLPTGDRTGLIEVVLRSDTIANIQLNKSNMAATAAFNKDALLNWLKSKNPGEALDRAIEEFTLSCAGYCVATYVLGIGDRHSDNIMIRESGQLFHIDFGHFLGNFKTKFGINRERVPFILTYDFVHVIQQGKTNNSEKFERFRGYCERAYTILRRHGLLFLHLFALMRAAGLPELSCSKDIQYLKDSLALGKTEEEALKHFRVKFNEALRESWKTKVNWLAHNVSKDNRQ
PI3Kδ, sequence (P27986 whole entry partner, canonical isoform): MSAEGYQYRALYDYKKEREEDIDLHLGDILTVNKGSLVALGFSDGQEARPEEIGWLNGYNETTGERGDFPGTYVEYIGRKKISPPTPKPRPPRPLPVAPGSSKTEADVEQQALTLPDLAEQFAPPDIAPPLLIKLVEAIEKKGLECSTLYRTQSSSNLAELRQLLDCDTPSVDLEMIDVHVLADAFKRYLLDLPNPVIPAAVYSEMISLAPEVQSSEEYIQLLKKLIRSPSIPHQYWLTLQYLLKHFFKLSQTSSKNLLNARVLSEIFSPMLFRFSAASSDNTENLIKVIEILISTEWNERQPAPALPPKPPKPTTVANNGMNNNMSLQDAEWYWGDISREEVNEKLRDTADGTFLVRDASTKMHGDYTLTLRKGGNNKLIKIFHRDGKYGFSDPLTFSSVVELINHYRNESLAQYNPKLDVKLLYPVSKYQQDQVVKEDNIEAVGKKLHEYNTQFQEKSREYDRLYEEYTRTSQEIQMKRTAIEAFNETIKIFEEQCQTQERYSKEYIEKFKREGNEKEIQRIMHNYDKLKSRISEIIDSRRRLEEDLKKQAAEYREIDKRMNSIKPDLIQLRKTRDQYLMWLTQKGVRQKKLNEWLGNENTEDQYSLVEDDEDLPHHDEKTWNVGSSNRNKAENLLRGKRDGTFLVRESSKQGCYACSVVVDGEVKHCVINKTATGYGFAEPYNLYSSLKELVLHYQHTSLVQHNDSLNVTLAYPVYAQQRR
Description: as §1

PI3Kγ = PI3Kγ (Homo sapiens (Human), UniProt P48736); experiment: TR-FRET enzymatic assay of PI3K isoforms (PI3Kγ); conditions: TR-FRET, 2×Km ATP, 2 μM PIP2, PI3Kγ at 2 nM, incubated for 30 minutes at 25° C.; read-out: γ IC50
PI3Kγ, sequence (P48736 whole entry, canonical isoform): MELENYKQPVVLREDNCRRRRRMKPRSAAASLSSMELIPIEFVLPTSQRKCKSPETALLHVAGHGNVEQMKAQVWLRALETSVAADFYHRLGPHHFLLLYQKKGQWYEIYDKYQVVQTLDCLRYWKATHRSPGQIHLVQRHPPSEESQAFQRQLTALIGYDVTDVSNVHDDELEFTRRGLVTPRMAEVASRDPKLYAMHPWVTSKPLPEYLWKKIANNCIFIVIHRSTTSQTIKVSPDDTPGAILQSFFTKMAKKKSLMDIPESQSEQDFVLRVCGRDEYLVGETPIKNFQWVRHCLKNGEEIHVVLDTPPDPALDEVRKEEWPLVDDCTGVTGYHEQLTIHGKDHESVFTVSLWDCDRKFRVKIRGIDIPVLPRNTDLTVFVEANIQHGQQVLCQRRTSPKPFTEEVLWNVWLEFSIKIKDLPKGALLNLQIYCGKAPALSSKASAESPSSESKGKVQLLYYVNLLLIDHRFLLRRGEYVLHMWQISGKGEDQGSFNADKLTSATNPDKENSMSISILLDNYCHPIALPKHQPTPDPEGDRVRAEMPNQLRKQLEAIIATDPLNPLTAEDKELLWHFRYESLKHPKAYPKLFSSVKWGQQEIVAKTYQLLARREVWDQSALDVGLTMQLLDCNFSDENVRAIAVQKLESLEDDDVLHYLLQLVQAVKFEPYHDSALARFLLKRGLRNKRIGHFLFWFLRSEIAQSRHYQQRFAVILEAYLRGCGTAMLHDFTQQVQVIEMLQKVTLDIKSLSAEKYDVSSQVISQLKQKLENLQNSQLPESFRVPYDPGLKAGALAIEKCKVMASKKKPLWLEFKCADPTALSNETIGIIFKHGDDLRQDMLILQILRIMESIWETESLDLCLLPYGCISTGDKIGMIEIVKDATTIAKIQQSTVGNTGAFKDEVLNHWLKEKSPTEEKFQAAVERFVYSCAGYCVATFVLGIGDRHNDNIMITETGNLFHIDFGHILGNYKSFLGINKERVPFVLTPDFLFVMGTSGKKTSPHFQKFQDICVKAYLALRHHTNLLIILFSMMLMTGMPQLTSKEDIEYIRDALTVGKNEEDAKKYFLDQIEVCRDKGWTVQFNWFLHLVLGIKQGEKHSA
PI3Kγ, sequence (Q8WYR1 whole entry partner, canonical isoform): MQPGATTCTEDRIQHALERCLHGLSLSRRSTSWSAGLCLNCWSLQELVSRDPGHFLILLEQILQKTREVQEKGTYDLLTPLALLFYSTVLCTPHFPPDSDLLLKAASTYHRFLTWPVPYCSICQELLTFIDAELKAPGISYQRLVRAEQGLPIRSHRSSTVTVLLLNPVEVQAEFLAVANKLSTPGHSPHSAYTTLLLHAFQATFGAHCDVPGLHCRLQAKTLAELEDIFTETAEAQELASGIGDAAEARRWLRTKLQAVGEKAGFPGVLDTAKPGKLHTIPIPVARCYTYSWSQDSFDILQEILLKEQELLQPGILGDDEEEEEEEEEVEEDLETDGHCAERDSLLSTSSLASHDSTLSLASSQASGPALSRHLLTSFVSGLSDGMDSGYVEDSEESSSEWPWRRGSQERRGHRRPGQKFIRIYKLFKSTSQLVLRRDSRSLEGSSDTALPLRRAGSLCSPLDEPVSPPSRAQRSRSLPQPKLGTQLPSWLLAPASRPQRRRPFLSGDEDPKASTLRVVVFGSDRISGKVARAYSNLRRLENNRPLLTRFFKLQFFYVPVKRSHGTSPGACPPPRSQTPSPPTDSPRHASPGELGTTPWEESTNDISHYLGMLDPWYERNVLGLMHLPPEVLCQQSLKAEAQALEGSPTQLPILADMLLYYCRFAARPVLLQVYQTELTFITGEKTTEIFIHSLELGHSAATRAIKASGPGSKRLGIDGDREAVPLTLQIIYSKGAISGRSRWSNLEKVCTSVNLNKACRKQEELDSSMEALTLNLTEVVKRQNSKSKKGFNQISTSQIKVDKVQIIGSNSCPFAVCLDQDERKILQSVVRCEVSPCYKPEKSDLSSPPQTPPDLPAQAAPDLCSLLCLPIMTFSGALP
Description: as §1

PI3Kβ, sequence (P42338 whole entry, canonical isoform): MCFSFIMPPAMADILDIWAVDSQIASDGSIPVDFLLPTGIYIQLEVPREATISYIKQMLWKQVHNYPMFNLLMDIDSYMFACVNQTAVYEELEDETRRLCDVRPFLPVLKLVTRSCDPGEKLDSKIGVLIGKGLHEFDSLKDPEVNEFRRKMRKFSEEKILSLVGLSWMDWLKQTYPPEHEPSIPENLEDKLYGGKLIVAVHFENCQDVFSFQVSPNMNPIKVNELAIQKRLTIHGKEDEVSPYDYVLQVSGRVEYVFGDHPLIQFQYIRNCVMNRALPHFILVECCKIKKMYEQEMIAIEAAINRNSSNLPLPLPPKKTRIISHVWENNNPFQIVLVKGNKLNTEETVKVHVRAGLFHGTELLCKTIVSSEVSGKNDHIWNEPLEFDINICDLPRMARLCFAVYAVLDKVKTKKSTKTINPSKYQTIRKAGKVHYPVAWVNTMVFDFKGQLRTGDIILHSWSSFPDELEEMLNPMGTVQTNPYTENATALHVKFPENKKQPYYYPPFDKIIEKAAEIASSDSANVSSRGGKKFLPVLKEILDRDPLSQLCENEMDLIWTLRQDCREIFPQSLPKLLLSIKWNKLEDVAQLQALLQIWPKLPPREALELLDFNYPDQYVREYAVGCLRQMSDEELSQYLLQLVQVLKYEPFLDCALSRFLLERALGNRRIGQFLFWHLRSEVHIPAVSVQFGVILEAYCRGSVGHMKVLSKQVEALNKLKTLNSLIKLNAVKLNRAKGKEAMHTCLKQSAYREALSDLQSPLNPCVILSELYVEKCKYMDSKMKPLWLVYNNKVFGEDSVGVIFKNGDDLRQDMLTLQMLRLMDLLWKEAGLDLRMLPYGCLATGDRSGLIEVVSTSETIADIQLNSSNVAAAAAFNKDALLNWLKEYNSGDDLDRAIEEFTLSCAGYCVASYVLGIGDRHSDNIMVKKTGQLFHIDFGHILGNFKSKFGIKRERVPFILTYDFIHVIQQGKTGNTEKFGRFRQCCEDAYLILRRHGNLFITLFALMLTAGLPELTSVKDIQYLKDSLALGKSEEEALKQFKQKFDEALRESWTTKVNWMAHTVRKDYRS
PI3Kβ, sequence (P27986 whole entry partner, canonical isoform): as the sequence (P27986 whole entry partner, canonical isoform) above

| SMILES | IC50 (PI3Kβ) [µM] | IC50 (PI3Kδ) [µM] | IC50 (PI3Kγ) [µM] |
| --- | --- | --- | --- |
| CCNC(=O)Nc1ccc(Cl)c(-n2c([C@H](C)Nc3ncnc(N)c3C#N)nc3cccc(Cl)c3c2=O)c1 (atropisomer, axis not shown) [Compound 58, (S)-1-(3-(2-(1-((6-amino-5-cyanopyrimidin-4-yl)amino)ethyl)-5-chloro-4-oxoquinazolin-3(4H)-yl)-4-chlorophenyl)-3-ethylurea] | 1.3 | 0.024 | – |
| CCNC(=O)Nc1ccc(Cl)c(-n2c([C@H](C)Nc3ncnc(N)c3C#N)nc3cccc(Cl)c3c2=O)c1 (atropisomer, axis not shown) [Compound 59, (S)-1-(3-(2-(1-((6-amino-5-cyanopyrimidin-4-yl)amino)ethyl)-5-chloro-4-oxoquinazolin-3(4H)-yl)-4-chlorophenyl)-3-ethylurea] | 0.61 | 0.056 | 2.3 |
| CCNC(=O)Nc1ccc(C)c(-n2c([C@H](C)Nc3ncnc(N)c3C#N)nc3cccc(Cl)c3c2=O)c1 (atropisomer, axis not shown) [Compound 60, (S)-1-(3-(2-(1-((6-amino-5-cyanopyrimidin-4-yl)amino)ethyl)-5-chloro-4-oxoquinazolin-3(4H)-yl)-4-methylphenyl)-3-ethylurea] | 0.21 | 0.004 | 0.21 |
| CCNC(=O)Nc1ccc(C)c(-n2c([C@H](C)Nc3ncnc(N)c3C#N)nc3cccc(Cl)c3c2=O)c1 (atropisomer, axis not shown) [Compound 61, (S)-1-(3-(2-(1-((6-amino-5-cyanopyrimidin-4-yl)amino)ethyl)-5-chloro-4-oxoquinazolin-3(4H)-yl)-4-methylphenyl)-3-ethylurea] | 1.13 | 0.008 | 2.5 |
| Cc1c(C(N)=O)cccc1-n1c([C@H](C)Nc2nc(N)nc(N)c2C#N)nc2cccc(Cl)c2c1=O (single isomer, unassigned) [Compound 5] | 0.526 | 0.002 | 0.081 |
| Cc1c(C(N)=O)cccc1-n1c([C@H](C)Nc2nc(N)nc(N)c2C#N)nc2cccc(Cl)c2c1=O (single isomer, unassigned) [Compound 6] | 0.032 | 0.004 | 0.62 |
| CCNC(=O)Nc1cccc(-n2c([C@H](C)Nc3ncnc(N)c3C#N)nc3cccc(Cl)c3c2=O)c1Cl (single isomer, unassigned) [Compound 94] | 5.5 | 0.078 | > 10 |
| CCNC(=O)Nc1cccc(-n2c([C@H](C)Nc3ncnc(N)c3C#N)nc3cccc(Cl)c3c2=O)c1Cl (single isomer, unassigned) [Compound 95] | 0.059 | 0.005 | 1 |
| C[C@H](Nc1nc(N)nc(N)c1Cl)c1nc2cccc(Cl)c2c(=O)n1-c1cccc(C(N)=O)c1 [Compound 1, (S)-3-(5-chloro-2-(1-((2,6-diamino-5-chloropyrimidin-4-yl)amino)ethyl)-4-oxoquinazolin-3(4H)-yl)benzamide] | 0.014 | 0.0007 | 1.3 |
| C[C@H](Nc1nc(N)nc(N)c1C#N)c1nc2cccc(Cl)c2c(=O)n1-c1cccc(C(N)=O)c1 [Compound 2, (S)-3-(5-chloro-2-(1-((2,6-diamino-5-cyanopyrimidin-4-yl)amino)ethyl)-4-oxoquinazolin-3(4H)-yl)benzamide] | 0.006 | 0.0005 | 0.06 |
| C[C@H](Nc1nc(N)nc(N)c1C#N)c1nc2c(Cl)ccc(Cl)c2c(=O)n1-c1cccc(C(N)=O)c1 [Compound 3, (S)-3-(5,8-dichloro-2-(1-((2,6-diamino-5-cyanopyrimidin-4-yl)amino)ethyl)-4-oxoquinazolin-3(4H)-yl)benzamide] | 0.012 | 0.0008 | 0.46 |
| C[C@H](Nc1nc(N)nc(N)c1Cl)c1nc2c(Cl)ccc(Cl)c2c(=O)n1-c1cccc(C(N)=O)c1 [Compound 4, (S)-3-(5,8-dichloro-2-(1-((2,6-diamino-5-chloropyrimidin-4-yl)amino)ethyl)-4-oxoquinazolin-3(4H)-yl)benzamide] | 0.029 | 0.001 | 4.4 |
| CC[C@H](Nc1nc(N)nc(N)c1Cl)c1nc2cccc(Cl)c2c(=O)n1-c1cccc(C(N)=O)c1 [Compound 7, (S)-3-(5-chloro-2-(1-((2,6-diamino-5-chloropyrimidin-4-yl)amino)propyl)-4-oxoquinazolin-3(4H)-yl)benzamide] | 0.007 | 0.001 | 2.7 |
| CC[C@H](Nc1nc(N)nc(N)c1C#N)c1nc2cccc(Cl)c2c(=O)n1-c1cccc(C(N)=O)c1 [Compound 8, (S)-3-(5-chloro-2-(1-((2,6-diamino-5-cyanopyrimidin-4-yl)amino)propyl)-4-oxoquinazolin-3(4H)-yl)benzamide] | 0.002 | 0.0004 | 0.2 |
| N#Cc1c(N)nc(N)nc1N[C@H](c1nc2cccc(Cl)c2c(=O)n1-c1cccc(C(N)=O)c1)C1CC1 [Compound 9, (S)-3-(5-chloro-2-(cyclopropyl((2,6-diamino-5-cyanopyrimidin-4-yl)amino)methyl)-4-oxoquinazolin-3(4H)-yl)benzamide] | 0.002 | 0.0006 | 0.22 |
| NC(=O)c1cccc(-n2c([C@@H](Nc3nc(N)nc(N)c3Cl)C3CC3)nc3cccc(Cl)c3c2=O)c1 [Compound 10, (S)-3-(5-chloro-2-(cyclopropyl((2,6-diamino-5-chloropyrimidin-4-yl)amino)methyl)-4-oxoquinazolin-3(4H)-yl)benzamide] | 0.007 | 0.001 | 2.7 |
| NC(=O)c1cccc(-n2c([C@@H](Nc3nc(N)nc(N)c3Cl)C3CC3)nc3c(Cl)ccc(Cl)c3c2=O)c1 [Compound 11, (S)-3-(5,8-dichloro-2-(cyclopropyl((2,6-diamino-5-chloropyrimidin-4-yl)amino)methyl)-4-oxoquinazolin-3(4H)-yl)benzamide] | 0.037 | 0.003 | 8.5 |
| N#Cc1c(N)nc(N)nc1N[C@H](c1nc2c(Cl)ccc(Cl)c2c(=O)n1-c1cccc(C(N)=O)c1)C1CC1 [Compound 12, (S)-3-(5,8-dichloro-2-(cyclopropyl((2,6-diamnino-5-cyanopyrimidin-4-yl)amino)methyl)-4-oxoquinazolin-3(4H)-yl)benzamide] | 0.006 | 0.0003 | 0.23 |
| Cc1nc(N)nc(N[C@H](c2nc3c(F)ccc(Cl)c3c(=O)n2-c2cccc(C(N)=O)c2)C2CC2)c1C#N [Compound 14, (S)-3-(2-(((2-amino-5-cyano-6-methylpyrimidin-4-yl)amino)(cyclopropyl)methyl)-5-chloro-8-fluoro-4-oxoquinazolin-3(4H)-yl)benzamide] | 0.01 | 0.001 | 0.36 |
| N#Cc1c(N)nc(N)nc1N[C@H](c1nc2c(Cl)cc(F)cc2c(=O)n1-c1cccc(C(N)=O)c1)C1CC1 [Compound 27, (S)-3-(8-chloro-2-(cyclopropyl((2,6-diamino-5-cyanopyrimidin-4-yl)amino)methyl)-6-fluoro-4-oxoquinazolin-3(4H)-yl)benzamide] | 0.005 | 0.002 | – |
| CCNC(=O)Nc1cccc(-n2c([C@H](C)Nc3ncnc4[nH]cnc34)nc3c(F)ccc(Cl)c3c2=O)c1 [Compound 63, (S)-1-(3-(2-(1-((9H-purin-6-yl)amino)ethyl)-5-chloro-8-fluoro-4-oxoquinazolin-3(4H)-yl)phenyl)-3-ethylurea] | 0.029 | 0.029 | – |
| C[C@H](Nc1ncnc(N)c1C#N)c1nc2cccc(Cl)c2c(=O)n1-c1cccc(NC(=O)Nc2cc(C(C)(C)C)on2)c1 [Compound 74, (S)-1-(3-(2-(1-((6-amino-5-cyanopyrimidin-4-yl)amino)ethyl)-5 chloro-4-oxoquinazolin-3(4H)-yl)phenyl)-3-(5-(tert-butyl)isoxazol-3-yl)urea] | 0.011 | 0.003 | – |
| C[C@H](Nc1ncnc(N)c1C#N)c1nc2cccc(Cl)c2c(=O)n1-c1cccc(NC(=O)Nc2c(Cl)cccc2Cl)c1 [Compound 103, (S)-1-(3-(2-(1-((6-amino-5-cyanopyrimidin-4-yl)amino)ethyl)-5-chloro-4-oxoquinazolin-3(4H)-yl)phenyl)-3-(2,6-dichlorophenyl)urea] | 0.002 | 0.007 | – |
| CCNC(=O)Nc1cccc(-n2c([C@H](COCc3ccccc3)Nc3ncnc4[nH]cnc34)nc3cccc(Cl)c3c2=O)c1 [Compound 133, (R)-1-(3-(2-(1-((9H-purin-6-yl)amino)-2-(benzyloxy)ethyl)-5-chloro-4-oxoquinazolin-3(4H)-yl)phenyl)-3-ethylurea] | 0.05 | – | 10 |
| C[C@H](Nc1ncnc2[nH]cnc12)c1nc2cccc(Cl)c2c(=O)n1-c1cccc(NC(=O)Nc2ccccc2S(C)(=O)=O)c1 [Compound 145, (S)-1-(3-(2-(1-((9H-purin-6-yl)amino)ethyl)-5-chloro-4-oxoquinazolin-3(4H)-yl)phenyl)-3-(2-(methylsulfonyl)phenyl)urea] | 0.03 | 0.008 | – |
| COCCNC(=O)Nc1cccc(-n2c(C(C)Oc3ncnc4scnc34)nc3cccc(Cl)c3c2=O)c1 (stereo not shown) [Compound 149, 1-(3-(5-chloro-4-oxo-2-(1-(thiazolo[5,4-d]pyrimidin-7-yloxy)ethyl)quinazolin-3(4H)-yl)phenyl)-3-(2-methoxyethyl)urea] | 0.06 | – | 3.5 |
